Source: paper PMC10484210 (Biochemistry, 2023)
pIC50: −log10 of the molar value.

What was measured:
[1] = target: BcPurE (Burkholderia cenocepacia, UniProt B4EA21); test: biochemical; type: biochemical; conditions: for inhibition of PurE activity in initial screen: two concentrations, 10 and 100 μM, against BcPurE
[2] = target: human PAICS (Homo sapiens, UniProt P22234); type: biochemical; conditions: two concentrations, 10 and 100 μM
Sequence of human PAICS (P22234 whole entry): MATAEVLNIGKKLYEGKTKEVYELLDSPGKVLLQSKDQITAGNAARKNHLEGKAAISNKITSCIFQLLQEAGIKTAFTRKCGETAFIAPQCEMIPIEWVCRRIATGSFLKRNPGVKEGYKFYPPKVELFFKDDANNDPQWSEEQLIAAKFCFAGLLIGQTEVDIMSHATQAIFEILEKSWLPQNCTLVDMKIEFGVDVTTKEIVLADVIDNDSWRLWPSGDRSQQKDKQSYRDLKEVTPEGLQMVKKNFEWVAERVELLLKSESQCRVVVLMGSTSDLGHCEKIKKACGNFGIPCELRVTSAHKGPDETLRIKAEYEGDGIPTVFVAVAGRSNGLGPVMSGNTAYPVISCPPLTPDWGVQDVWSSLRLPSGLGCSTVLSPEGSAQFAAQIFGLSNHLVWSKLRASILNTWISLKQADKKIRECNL

Sequence of BcPurE (B4EA21 1-173): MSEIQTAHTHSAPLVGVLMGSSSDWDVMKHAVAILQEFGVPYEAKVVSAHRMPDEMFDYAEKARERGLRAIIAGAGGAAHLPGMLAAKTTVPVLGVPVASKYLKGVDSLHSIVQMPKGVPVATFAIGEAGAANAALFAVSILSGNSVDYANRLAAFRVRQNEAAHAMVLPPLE

Row | Compound | inhibition of PurE activity in initial screen [1] | inhibition of human PAICS decarboxylation activity [2] | pIC50 [1]
1 | CN(C)C/C=C/C(=O)Nc1cc2c(Nc3ccc(F)c(Cl)c3)ncnc2cc1O[C@H]1CCOC1 [Afatinib] | some degree of inhibition | do inhibit | 
2 | COc1cc2nc(N(C)CCCNC(=O)C3CCCO3)nc(N)c2cc1OC (centres unmarked) [Alfuzosin] | some degree of inhibition | little or no inhibition | 4.33
3 | COc1ccc(CN=c2[nH]c(N3CCC[C@H]3CO)ncc2C(=O)NCc2ncccn2)cc1Cl [Avanafil] | some degree of inhibition | little or no inhibition | 
4 | CCc1cc2c(cc1CC)CC(NC[C@H](O)c1ccc(O)c3[nH]c(=O)ccc13)C2 [Indacaterol] | some degree of inhibition | do inhibit | 
5 | CC(=O)N1CCN(c2ccc(OCC3COC(Cn4ccnc4)(c4ccc(Cl)cc4Cl)O3)cc2)CC1 (centres unmarked) [Ketoconazole] | some degree of inhibition | little or no inhibition | 
